Test results taken from patent publication US20240189388A1, “MEDICATION FOR TREATING LUNG INJURY” (SHANGHAI SEME CELL TECHNOLOGY CO., LTD., priority 2021, published 2024).
Values joined by “and” are separate entries in the source; they are usually repeats but may differ in a detail not shown here. Identical values can stand only once.

Columns and labels:
rats with a lung injury [1] = assay: Blood gas test, LPS lung injury rats (Example 2); format: in vivo, Sprague-Dawley rats
Protocol: (§1) D0: The animals in the normal control group were intraperitoneally injected with sodium chloride injection (1 ml/kg), while the animals in other groups were intraperitoneally injected with lipopolysaccharides (1 mg/kg, 1 ml/kg).
(§2) D1: After 16 h (+30 min) of intraperitoneal injection, the animals were anesthetized by inhaling isoflurane. The animals in the normal control group were nebulized with sodium chloride injection (1 mL/kg) in the trachea, while the animals in other groups were nebulized with lipopolysaccharides (5 mg/kg, 1 ml/kg) in the trachea.
(§3) Administration frequency and duration: On D1, the animals were administered for the first time within 3 h after the intratracheal nebulization with the modeling reagent (LPS); and on D2, the animals were administered for the second time. The interval between the two administrations was about 24 h (+20 min).
Test time: the day after the second administration (D3)
Sample collection: The rats were anesthetized by intraperitoneal injection with chloral hydrate (350 mg/kg, 100 mg/mL), and their abdominal midline was longitudinally incised to separate the abdominal aorta. About 0.2 mL of arterial blood was collected with an arterial blood sampler. A syringe in the blood sampler was rubbed in the palm and turned upside down for 5 seconds to ensure that the blood was never returned to the blood sampler for blood mixing treatment.
Testing method: After the arterial blood was collected, a needle was gently inserted into a blood injection port of a test card, and the blood was gently pushed in and filled a sample filling tube. When the blood reached an adding position, the adding of the sample was stopped, a lid was closed, and the blood automatically entered the test tube. The test card was inserted into a blood gas analyzer to wait for test results.
Test indicators: PO2 (mmHg), PCO2 (mmHg), pH, and sO2%.

[2] = Body weight of rats after LPS modeling (Example 1); format: in vivo
Protocol: (§4) Normal adult male SD rats were randomly grouped, 5 rats in each group. The animals were intraperitoneally injected and nebulized in the trachea with lipopolysaccharides (LPS) as a modeling reagent, as shown in Table 1:
(§5) The animals in groups G1 and G2 were intraperitoneally injected with lipopolysaccharides (0.8 mg/kg. body weight) according to their body weight, anesthetized by inhaling isoflurane after 16 h of the intraperitoneal injection, and nebulized with lipopolysaccharides (5 mg/kg. body weight) in the trachea.
(§6) The animals were administered for the first time within 1 h after the intratracheal nebulization with the modeling reagent (LPS), and the second time after 24 h.
Before grouping, the animals were weighed on the day of modeling and the day of administration of samples; and the animals were also weighed when they were found dead or on the brink of euthanasia.

rats with a lung injury [3] = assay: Inflammatory factors in serum (Example 2); format: in vivo, Sprague-Dawley rats
Protocol: as §1, §2, §3
Collection of blood sample: About 1 mL of abdominal aortic blood of each animal was collected into a centrifuge tube containing a separation gel and a coagulant.
Treatment of blood sample: After collection, the blood sample was stored and transported at room temperature, and centrifuged within 2 hours under the conditions: 3000 g, room temperature, and 10 minutes. The serum after centrifugation was transferred to a new labeled centrifuge tube and divided into 2 tubes, which were temporarily stored below −60° C. At the end of the experiment, inflammatory factors (IL-1β, IL-6, IL-10, and TNF-α) in the serum were tested by a reagent kit. The blood sample was managed by the Watson LIMS7.5 system.

rats with a lung injury [4] = assay: Survival test, LPS lung injury rats (Example 2); format: in vivo, Sprague-Dawley rats; conditions: test sample group, 0.75 mg/kg intravenous, 6 rats
Protocol: Animal grouping: 18 qualified male animals were randomly divided into a normal control group, a model control group, and a test sample group according to their body weight measured before grouping, with 6 animals per group.
as §1, §2
D1: About 3 h to 5 h after the intratracheal nebulization of the modeling reagent (LPS), the animals were administrated with the test sample or solvent according to the following table 8: […]
After planned euthanasia, a rate of a quantity of live animals in each group to a total quantity of animals in each group in an experimental period was calculated.
Survival rate (%)=the quantity of live animals in a group/the total quantity of animals in the group×100%.

[5] = system: LPS-induced acute respiratory distress syndrome; assay: Histopathological examination of lung, HE staining, LPS-induced ARDS rat model (Example 1); format: in vivo, SD rats; design: key to Pulmonary pathological score, Inflammation, Sited 1 / Pulmonary pathological score, Inflammation, Sited 2 / Pulmonary pathological score, Inflammation, Sited 3 / Pulmonary pathological score, Alveolar wall thickness, Sited 1 / Pulmonary pathological score, Alveolar wall thickness, Sited 2 / Pulmonary pathological score, Alveolar wall thickness, Sited 3: 0: NA; 1: Slight; 2: Moderate; 3: Severe; Pulmonary pathological score, Mean of total / Pulmonary pathological score, Inflammation, Mean / Pulmonary pathological score, Alveolar wall thickness, Mean / Pulmonary pathological score, Total: scale not given here
Protocol: as §4, §5, §6
After the bronchoalveolar lavage fluid was collected from all the animals, the chest cavity was opened to take the right lung. The lung was infused with formalin by using an injection needle, fixed in a 10% neutral buffer formalin solution, followed by paraffin embedding, slicing, section preparation, and HE staining for pathological morphological observation of lung tissues. Professional pathologists carried out pathological testing on the lung tissues.

[6] = arterial blood, D3, 0.75 mg/kg i.v. twice, 6 rats, x ± SD
[7] = test sample group vs model control group
[8] = D3, 0.75 mg/kg i.v. twice, 6 rats, x ± SD
[9] = G2 compared to model control group G1
[10] = mean of 3 sites per animal G2-1 to G2-5, 1 mg/kg
[11] = single animals G2-1 to G2-5, 1 mg/kg, score 0-3

**Q.** What does the source list for Annexin A5?
**A.** PCO2 (rats with a lung injury [1]; [6]): 46.63 ± 6.17 mmHg; PO2 (rats with a lung injury [1]; [6]): 82.5 ± 8.7 mmHg; pH (rats with a lung injury [1]; [6]): 7.372 ± 0.049; sO2 % (rats with a lung injury [1]; [6]): 95.5 ± 1.0 %; Change in the pH indicator (rats with a lung injury [1]; test sample group): no significant change; Change of PO2, sO2% and PCO2 after administration (rats with a lung injury [1]; [7]): all increased with statistical differences; Body weight, Day 0 ([2]; G2 mean, 5 rats, 1 mg/kg caudal vein injection, Day 0): 254.49 g; Body weight, Day 1 ([2]; G2 mean, 5 rats, 1 mg/kg caudal vein injection, Day 1): 240.80 g; Body weight, Day 2 ([2]; G2 mean, 5 rats, 1 mg/kg caudal vein injection, Day 2): 224.36 g; Body weight, Day 3 ([2]; G2 mean, 5 rats, 1 mg/kg caudal vein injection, Day 3): 241.86 g; Body weight compared between groups ([2]; after LPS modeling, G2 vs G1): no significant difference between the groups; IL-1β in serum (rats with a lung injury [3]; [8]): 15.41 ± 25.29 pg/mL; IL-6 in serum (rats with a lung injury [3]; [8]): 0.00 ± 0.00 pg/mL; IL-10 in serum (rats with a lung injury [3]; [8]): 18.35 ± 9.84 pg/mL; TNF-α in serum (rats with a lung injury [3]; [8]): 0.00 ± 0.00 pg/mL; Change of inflammatory factors in the serum (rats with a lung injury [3]; [7]): significantly decreased to similar levels as the normal control group; Survival rate (rats with a lung injury [4]): 100%; Effect on LPS-induced acute respiratory distress syndrome (pathological analysis) [5, 9]: significant improvement; Lung injury in stained pathological sections (FIG. 4) [5, 9]: significantly improved; Pulmonary pathological score, Mean of total ([5]; group G2, 5 rats, 1 mg/kg): 2.33; Pulmonary pathological score, Alveolar wall thickness, Mean [5, 10]: 0.67 (3×) and 1.00 and 1.33; Pulmonary pathological score, Inflammation, Mean [5, 10]: 1.67 and 2.00 and 1.33 (2×) and 1.00; Pulmonary pathological score, Total ([5]; per animal G2-1 to G2-5, 1 mg/kg): 2.33 (2×) and 3.00 and 2.00 (2×); Pulmonary pathological score, Alveolar wall thickness, Sited 1 [5, 11]: 0 (2×) and 1 (2×) and 2; Pulmonary pathological score, Alveolar wall thickness, Sited 2 [5, 11]: 1 (4×) and 2; Pulmonary pathological score, Alveolar wall thickness, Sited 3 [5, 11]: 1 (3×) and 0 (2×); Pulmonary pathological score, Inflammation, Sited 1 [5, 11]: 2 (2×) and 1 (3×); Pulmonary pathological score, Inflammation, Sited 2 [5, 11]: 2 and 3 and 1 (3×); Pulmonary pathological score, Inflammation, Sited 3 [5, 11]: 1 (3×) and 2 (2×)
